# Counter-ions that a name gives are not always drawn.
# System: mosquitoes
# Assay: Attractive toxic sugar assay
# Format: in vivo
# Details: after three days, dead / total mosquitoes
# Description: Experiments were carried out to examine the lethality of compounds of the present invention using an attractive toxic sugar assay. These experiments were carried out in 6 groups according to Table 3. […] The experimental room was conditioned with 75% humidity or higher. Experimental cages were prepared by adding paper towels to the cage bottoms. Cages of mosquitoes were collected (about 25 males and about 25 females per cage), one cage for each sugar bait being tested with an extra cage to use as a sucrose-only control. […] Feeding cups were prepared with 10 ml of experimental sugar bait to a cup. In some experiments, blue food coloring was added to verify sugar consumption in the frass. Bait cups were mixed by gentle swirling and wicks were added through the top. Control bait cups received about 10 ml of prepared 10% sucrose solution (except where otherwise indicated). Heat, humidity as well as humidifier water content were checked each day. Cages were examined daily for dead mosquitoes. The number of dead mosquitoes per gender was recorded each day. Frass content was examined daily and compared with that of sucrose control. After three days, final observations were made and live mosquitoes were removed from each experimental cage and placed into cups for examination under the dissecting scope to determine whether or not female mosquitoes had fed. Once feeding females had been determined for populations from each cage, cups were frozen and discarded. Dead mosquitoes in each cage were counted and the sex of each determined. The relative frass content per cage was compared to that of the sucrose control cage. […] Percent (%) lethality was calculated for each treatment group by dividing the total (male and female) number of dead mosquitoes by the total number of mosquitoes for each.
# [1] = sugar conc. 0.10%, about 25 male and 25 female mosquitoes per cage
Compound,% Lethality [1] [%],% Lethality (sugar conc. 0.50%) [%]
O.O.O.O.O.OC[C@H]1O[C@H](OC[C@H]2O[C@H](O[C@]3(CO)O[C@H](CO)[C@@H](O)[C@@H]3O)[C@H](O)[C@@H](O)[C@@H]2O)[C@H](O)[C@@H](O)[C@H]1O [D-(+)-raffinose pentahydrate],38.8,–
O=C(CO)[C@@H](O[C@H]1O[C@H](CO)[C@@H](O)[C@H](O)[C@H]1O)[C@H](O)[C@H](O)CO [D-(+)-turanose],66,29
"OC[C@H]1O[C@@H](O[C@H]2O[C@H](CO)[C@@H](O)[C@H](O)[C@H]2O)[C@H](O)[C@@H](O)[C@@H]1O [alpha,beta-trehalose]",56.2,–
CC1(C)[C@@H](O[C@H]2O[C@H](C(=O)O)[C@@H](O)[C@H](O)[C@H]2O[C@@H]2O[C@H](C(=O)O)[C@@H](O)[C@H](O)[C@H]2O)CC[C@]2(C)[C@H]3C(=O)C=C4[C@@H]5C[C@@](C)(C(=O)O)CC[C@]5(C)CC[C@@]4(C)[C@]3(C)CC[C@@H]12 [glycyrrhizic acid ammonium salt],68.3,–
OC[C@H]1O[C@H](OCC2O[C@@H](O)[C@H](O)[C@@H](O)[C@@H]2O)[C@H](O)[C@@H](O)[C@H]1O (stereo partly drawn) [melibiose],64.4,–
CO[C@@H]1O[C@H](CO)[C@H](O)[C@H](O)[C@H]1O [methyl-beta-D-galactopyranoside],65.9,43
C[C@@H]1O[C@@H](OC[C@H]2O[C@@H](Oc3c(-c4ccc(O)c(O)c4)oc4cc(O)cc(O)c4c3=O)[C@H](O)[C@@H](O)[C@@H]2O)[C@H](O)[C@H](O)[C@H]1O [rutin hydrate],58,45
n-acetyl allolactosamine,44,–
sucrose octasulfate aluminum complex,39.6,–

# From patent US20170127675A1, “COMPOSITIONS AND METHODS FOR CONTROLLING INSECT POPULATIONS” (OLFACTOR LABORATORIES, INC., priority 2014, published 2017)
